The values below come from PubChem BioAssay AID540268 (Broad Institute, 2011).

Where “and” joins values, the source holds several entries; their conditions need not be identical. Identical values can stand only once. Calls of active or inactive are those of the source. The rule behind the calls is not given here.

The nature of one assay: growth inhibition of yeast carrying parasite Hsp90, dose response, anti-malarial Hsp90 inhibitor project, ATP luminescence, 48 h, cherry-picked samples (AID 540268).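 For activity change, negative = inhibition: 0% = neutral control wells and -100% = positive control wells.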 The note with it: yeast expressing the parasite Hsp90, ATP luminescence.
Usually AC50 stands for the midpoint of the concentration-response curve, whichever way the signal moves. In the case of `CCOC(=O)c1cc2cc(OCc3ccccc3)ccc2nc1C`, the AC50 was 2.97 µM.
With `O=c1c2ccccc2nnn1CSc1nnc(COc2ccc(Cl)cc2)n1Cc1ccco1`, the AC50 is 3.31 µM.
With `CC(C)N1C(=O)/C(=C\c2nc3ccccc3c(=O)[nH]2)c2ccccc21`, the AC50 is 6.47 µM.
As to `O=c1cc(-c2ccc(C3CCCCC3)cc2)[nH][nH]1`, the AC50 was 7.7 µM.
On to `O=C1C=CC(=O)N1c1ccc2ccccc2c1`, for which the AC50 is 0.568 µM.
Turning to `CC(=O)Nc1ccc2c(c1)Cc1cc(N3C(=O)C=CC3=O)ccc1-2`, the AC50 is 0.654 µM.
Still for that read-out and setting: for `CC1(C)C=Cc2c(ccc3c2OC[C@H](c2ccc(O)cc2O)C3)O1` the value was 4.6 µM.
In the case of `O=C(N/N=C\c1c(O)ccc2ccccc12)c1cncc(Br)c1`, the AC50 is 4.28 µM.
For the molecule `COc1ccc(C(=O)/C=C/C(=O)N(CC(=O)NC2CCCCC2)Cc2cccs2)c(O)c1`, the AC50 was 3.3 µM.
For the molecule `COc1ccc(C2=CC3=C(Br)C(=O)C(C)(OC(=O)c4ccco4)C(=O)C3=CO2)cc1` (centres undefined), the AC50 was 3 µM.
Turning to `CCCCCCCCCCCCCCCC[n+]1cccc(C(=O)N(CC)CC)c1`, the AC50 is 2.89 µM and 8.12 µM.
Turning to `O=C(O)/C=C/C(=O)c1ccc2c(c1)CCc1ccccc1-2`, the AC50 is 26.3 µM.
Regarding `Cc1ccc(S(=O)(=O)N(C(=O)c2ccncc2)c2ccc(OC(=O)c3ccncc3)cc2)cc1`, the AC50 is 0.863 µM.
As to `CCCOc1ccc2ccccc2c1/C=C1\SC(=O)NC1=O`, the AC50 was 7.76 µM.
Regarding `Oc1c(Br)cc(Br)cc1C=NCc1ccccc1`, the AC50 was 7.51 µM.
The same measure, in the same setting: the same measure for `CN(c1ccccc1)c1ccc(/C=C/[N+](=O)[O-])cc1`: 5.24 µM.
In the case of `O=C(OCC(=O)c1c[nH]c2ccccc12)c1ccc([N+](=O)[O-])s1`, the AC50 is 4.09 µM.
Consider `CCOc1cc(S(=O)(=O)NC2CCCCCC2)ccc1F`, for which the AC50 was 5.56 µM.
As to `C=CCn1c(O)c(N=Nc2ccccc2O)c2ccccc21`, the AC50 was 8.15 µM.
Regarding `COc1cc(N(C)C)ccc1C=c1c2ccccc2n2c1cc(-c1ccccc1)[n+]2C`, the AC50 is 7.55 µM.
In the case of `O=[N+]([O-])c1oc2ccc3ccccc3c2c1CCO`, the AC50 was 2.06 µM.
With `C[C@@H]1C[C@@H]([C@H](O)CC2CC(=O)NC(=O)C2)C(=O)[C@@H](C)C1`, the AC50 was less than 0.195 µM.
In the case of `O=C(N/N=C/c1sc2ccccc2c1O)c1ccccc1`, the AC50 was 1.13 µM.
For `CCCCN(CCCC)CCC(O)c1cc2c(Cl)cc(Cl)cc2c2cc(C(F)(F)F)ccc12` (centres undefined), the AC50 is 7.42 µM.
As for `O=[N+]([O-])c1ccc(S(=O)Cc2ccccc2)c([N+](=O)[O-])c1` (centres undefined), the AC50 was 2.55 µM.
In the case of `CCCC(=O)NC(c1ccc(OC)c(OC)c1)c1cc(Cl)c2cccnc2c1O` (centres undefined), the AC50 is 6.12 µM.
`C=C1C(=O)C23CCC4C(C)(C(=O)OC)CCCC4(C)C2CCC1(O)C3` (centres undefined): the AC50 is 1.54 µM.
Consider `O=C1OC(c2ccccc2)(c2ccc3cc(O)ccc3c2)c2ccccc21` (centres undefined), for which the AC50 was 9.13 µM.
Take `CCN(CC)c1ccc(C(=C2C=CC(=[N+](CC)CC)C=C2)c2ccc(N(CC)CC)cc2)cc1`: the AC50 is 0.735 µM.
As to `CC(C)(C)C(=O)C(Cl)C(=O)Nc1ccccc1` (centres undefined), the half-maximal activity concentration (AC50) was 1.06 µM.
Regarding `CCCC(=O)NC(c1ccc(C)cc1)c1ccc2cccnc2c1O` (centres undefined), the AC50 is 3.4 µM.
Still for that read-out and setting: for `Cc1cc(N2C(=O)C=CC2=O)c([N+](=O)[O-])cc1C` the value was 1.18 µM.
For `O=C(N/N=C/c1cc(Cl)c(O)c(Cl)c1)c1cc2c(ccc3ccccc32)o1`, the AC50 was 3.54 µM.
Consider `CN1CCN(C(c2ccccn2)c2cc(Cl)c3cccnc3c2O)CC1` (centres undefined), for which the AC50 is 7.88 µM.
In the case of `CCCCCCCCCCCCCCCC[N+](C)(C)C`, the half-maximal activity concentration (AC50) was 8.6 µM.
As for `O=C(Nc1ccccc1)c1nnsc1S(=O)(=O)c1ccc(Cl)cc1`, the AC50 is 0.435 µM.
Regarding `C=CCn1c(C)cc(C(=O)CSc2nnc(NCc3ccccc3)s2)c1C`, the AC50 is 4.2 µM.
For `COc1ccc(C(C[N+](=O)[O-])n2nc(C)cc2C)cc1` (centres undefined), the AC50 was 0.365 µM.
Regarding `O=C(Oc1c(Cl)cc(Cl)c2cccnc12)c1cccc([N+](=O)[O-])c1`, the AC50 is 16 µM.
Consider `Cc1cccc(NC(=O)c2nc(S(=O)(=O)Cc3ccccc3)ncc2Cl)c1`, for which the AC50 was 3.15 µM.
In the case of `O=C1CC(N2CCCCCC2)C(=O)N1c1ccc2c(c1)OCO2` (centres undefined), the AC50 is 4.12 µM.
Take `Cc1ccc(N2C(=O)C3C4C=CC(CNC(=S)N5CCN(c6ccccc6)CC5)(O4)C3C2=O)cc1` (centres undefined): the AC50 is 6.93 µM.
`CCc1ccc(NC(=O)c2nc(S(=O)(=O)Cc3ccccc3)ncc2Cl)cc1`: the AC50 was 3.5 µM.
For `O=C(Nc1nc(-c2ccccn2)cs1)c1ncc(Cl)c(Cl)c1Cl`, the AC50 was 2.9 µM.
Take `Cc1ccc(NC(=S)N/N=C/c2ccc([N+](=O)[O-])s2)cc1`: the AC50 was 4.92 µM.
Take `Cc1cc(C(C)(C)CC(C)(C)C)ccc1OCCOCC[N+](C)(C)Cc1ccccc1`: the AC50 is 7.8 µM.
As to `O=C1OCC(CO)(CO)N=C1NNc1ccc(Cl)c(Cl)c1`, the AC50 was 2.2 µM.
For the molecule `Cc1ccc(-n2ncc3c2CCCC3NC(=O)c2ccccc2N2CCOCC2)cc1C` (centres undefined), the AC50 was 0.984 µM.
Same read-out and setting: the same measure for `CC1(C(=O)c2ccccc2)C2c3c(ccc4ccccc34)OC(=O)C21C(=O)N1CCOCC1` (centres undefined): 4.16 µM.
For the molecule `CCOc1ccc(N2C(=O)/C(=C\c3ccccc3OC)S(=O)(=O)C2c2cccc([N+](=O)[O-])c2)cc1` (centres undefined), the AC50 was 21.6 µM.
In the case of `COc1cc2cnc(-c3ccccc3)c(C(=O)c3ccc(F)cc3)c2cc1OC`, the AC50 is 3.01 µM.
As to `Cc1ccc(-c2onc3ccc(C(=O)/C=C/N(C)C)cc23)cc1`, the AC50 is 5.98 µM.
For `CCc1ccc(-c2cc(C(=O)N3N=C(C(F)F)CC3(O)C(F)F)c3ccccc3n2)cc1` (centres undefined), the AC50 is 3.24 µM.
On the same count and under the same terms, the same measure for `CCCNC(=O)c1nnsc1S(=O)(=O)c1ccc(Cl)cc1`: 0.758 µM.
Consider `COc1cc(/C=N/O)cc(Br)c1OCc1cccc(Cl)c1`, for which the AC50 was 8.2 µM.
As to `CCCCCCCCCCCCCCCC[n+]1cccc2ccccc21`, the AC50 was 3.05 µM.
Same read-out and setting: the same measure for `Oc1cccc2ccc(/C=C/c3ccccc3Br)nc12`: 16.9 µM.
On to `O=C1/C(=C\c2ccc(Cl)cc2)CCC1CNc1ccc(Cl)cc1` (centres undefined), for which the concentration at half-maximal activity (AC50) is less than 0.195 µM.
On the same count and under the same terms, for `Cc1cccc(C)c1N=Nc1c(C)cc(O)cc1C` the value was 8.29 µM; for `Cn1ncc2c(Nc3cccc(Cl)c3)nc(Nc3cccc(Cl)c3)nc21`, 2.82 µM; for `Cc1occc1-c1nnc(-c2cc([N+](=O)[O-])cc([N+](=O)[O-])c2)o1`, 2.4 µM.
As for `Oc1ccc(Br)cc1/C=N/Nc1ccccn1`, the AC50 was 2.67 µM.
As to `Cc1cc(/C=C2\SC(=S)N(C)C2=O)c(C)n1-c1ccc(O)cc1`, the AC50 was 8.33 µM.
Turning to `CC(C)CCOc1cccc(OCC(=O)Nc2ccncc2)c1`, the AC50 is 4.84 µM.
As to `CC1=NOC(=O)/C1=C\c1ccc(-c2ccc(Br)cc2)o1`, the AC50 is 4.51 µM.
In the case of `Clc1ccccc1C(c1ccccc1)(c1ccccc1)n1ccnc1`, the AC50 is less than 0.195 µM.
Take `O=[S@]1Oc2ccccc2-c2ccccc21`: the AC50 is 1.67 µM.
With `O=C(NCCCCc1ccccc1)c1ccc(Br)cc1`, the AC50 was 4.42 µM.
On the same count and under the same terms, the same measure for `c1ccc(-c2c(-c3ccccc3)n(Cc3ccco3)c3ncnc(NCCCn4ccnc4)c23)cc1`: 1.83 µM; for `CN(CC(=O)Nc1cccc(F)c1)C(=O)c1cn(-c2ccccc2)nc1-c1ccc(Cl)cc1`: 7.8 µM.
The same measure, in the same setting: for `CCCCCCCCCCCCn1ccc(=N)cc1` the value was 7.7 µM.
On to `Oc1c(Br)cc(Br)cc1C=NCc1ccc(F)cc1`, for which the AC50 is 8.5 µM.
`c1ccc(-c2cccc(-c3ccccn3)n2)nc1`: the AC50 is 1.03 µM.
As for `CCc1sc(C(=O)Nc2nc(-c3ccccn3)cs2)cc1C`, the AC50 is 8.12 µM.

The assay is the same for the next values; noted with them: yeast expressing the parasite Hsp90, ATP luminescence, at 26 µM (top of the series).
Regarding `CCOC(=O)C1=C(Cc2ccc(Cl)cc2)C(=O)c2ccccc2C1=O`, the activity change, negative = inhibition was -104% (inactive).
On the same count and under the same terms, the same measure for `O=C1C(=C(I)I)c2ccccc2-c2ccccc21`: 26.6% (inactive); for `Cc1cc(Br)c2c(c1)/C(=C/C(=O)c1cccs1)C(=O)N2`: -12.3% (inactive); for `Cc1cccc(NC(=S)N/N=C/c2ccc([N+](=O)[O-])s2)c1`: -14.3% (inactive).
With `COc1ccc(NC(=S)Nc2ccc3snnc3c2)cc1`, the activity change, negative = inhibition was -20.2% (inactive).
